In the supplement of paper PMC10627819:

What was measured:
B. subtilis 168 [1] = assay: fitness (endpoint OD595 vs no drug) (fraction); higher = more growth
Method in brief: (§1)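 Volumes were 30 µl per well, or 55 µl for S. pneumoniae, in 384-well plates inoculated at OD595 0.01. Media were TSB, LB Lennox or CY at 37 °C, and OD595 was read every 30 min for 14 h with first-reading background subtraction. Fitness is the ratio of optical density at stationary-phase entry to the robust mean of no-drug controls. That ratio is capped at 1.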

S. aureus Newman [2] = assay: as above
Method in brief: as §1

S. pneumoniae D39V [3] = assay: as above
Method in brief: as §1

B. subtilis 168 [4] = assay: Bliss interaction score (quartile over a dose matrix) (fitness difference); higher = more antagonism (negative = synergy)
Method in brief: (§2)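 Fitness was derived from optical density at entry into stationary phase, divided by the robust mean of the no-drug wells on the same plate. That reading was taken as OD595, and the ratio was capped at 1. Single-drug fitness was inferred from the combination data. The Bliss score, observed fitness minus the expected product of single-drug fitness, was summarised as quartiles over technical, biological and donor/recipient replicates.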

S. aureus DSM 20231 = assay: as above
Method in brief: as §2

S. aureus Newman [5] = assay: as above
Method in brief: as §2

S. pneumoniae D39V [6] = assay: as above
Method in brief: as §2
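For Bliss interaction score (quartile over a dose matrix) in this document: first quartile when negative (synergy) and third quartile when positive (antagonism).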

Cc1ncc([N+](=O)[O-])n1CCO [Metronidazole] + CN(C)c1cc(NC(=O)CNC(C)(C)C)c(O)c2c1C[C@H]1C[C@H]3[C@H](N(C)C)C(O)=C(C(N)=O)C(=O)[C@@]3(O)C(O)=C1C2=O [Tigecycline]
fitness
Conditions	first compound 0.625 µg/mL	first compound 1.073 µg/mL	first compound 1.25 µg/mL	first compound 2.145 µg/mL	first compound 2.5 µg/mL	first compound 4.29 µg/mL	first compound 5 µg/mL
B. subtilis 168 [1], partner 0.039 µg/mL	0.963	–	0.977	–	≥ 1	–	–
B. subtilis 168 [1], partner 0.078 µg/mL	0.942	–	0.94	–	0.976	–	–
B. subtilis 168 [1], partner 0.156 µg/mL	0.944	–	0.963	–	0.938	–	–
S. aureus Newman [2], partner 0.039 µg/mL	0.987	–	≥ 1	–	0.995	–	–
S. aureus Newman [2], partner 0.078 µg/mL	≥ 1	–	0.981	–	≥ 1	–	–
S. aureus Newman [2], partner 0.156 µg/mL	0.966	–	0.977	–	≥ 1	–	–
S. pneumoniae D39V [3], partner 0.65 µg/mL	–	0.931	0.965	0.925	0.968	0.935	0.964
S. pneumoniae D39V [3], partner 1.3 µg/mL	–	0.931	0.94	0.938	0.943	0.949	0.952
S. pneumoniae D39V [3], partner 2.6 µg/mL	–	0.921	0.957	0.911	0.964	0.943	0.952

fitness, one replicate
Conditions	first compound 0.625 µg/mL	first compound 0.781 µg/mL	first compound 1.25 µg/mL	first compound 1.562 µg/mL	first compound 2.5 µg/mL	first compound 3.124 µg/mL
B. subtilis 168 [1], partner 0.125 µg/mL	≥ 1	–	≥ 1	–	≥ 1	–
B. subtilis 168 [1], partner 0.25 µg/mL	0.963	–	0.942	–	0.967	–
B. subtilis 168 [1], partner 0.5 µg/mL	0.917	–	0.927	–	0.968	–
S. aureus Newman [2], partner 0.039 µg/mL	–	≥ 1	–	0.971	–	0.932
S. aureus Newman [2], partner 0.078 µg/mL	–	≥ 1	–	≥ 1	–	≥ 1
S. aureus Newman [2], partner 0.156 µg/mL	–	≥ 1	–	≥ 1	–	0.959

Conditions	Bliss interaction score
B. subtilis 168 [4]	-0.0624
S. aureus DSM 20231	0.0589
S. aureus Newman [5]	0.0458
S. pneumoniae D39V [6]	0.0439

O=C(O)c1cn(C2CC2)c2cc(N3CCNCC3)c(F)cc2c1=O [Ciprofloxacin] + COc1ccc(C[C@H](N)C(=O)N[C@H]2[C@@H](O)[C@H](n3cnc4c(N(C)C)ncnc43)O[C@@H]2CO)cc1 [Puromycin]
Conditions	fitness
B. subtilis 168 [1], first compound 0.0098 µg/mL, partner 0.39 µg/mL	0.918
B. subtilis 168 [1], first compound 0.0098 µg/mL, partner 0.78 µg/mL	0.956
B. subtilis 168 [1], first compound 0.0098 µg/mL, partner 1.56 µg/mL	0.842
B. subtilis 168 [1], first compound 0.0195 µg/mL, partner 0.39 µg/mL	0.721
B. subtilis 168 [1], first compound 0.0195 µg/mL, partner 0.78 µg/mL	0.721
B. subtilis 168 [1], first compound 0.0195 µg/mL, partner 1.56 µg/mL	0.683
B. subtilis 168 [1], first compound 0.039 µg/mL, partner 0.39 µg/mL	0.0586
B. subtilis 168 [1], first compound 0.039 µg/mL, partner 0.78 µg/mL	0.0556
B. subtilis 168 [1], first compound 0.039 µg/mL, partner 1.56 µg/mL	0.0555
S. aureus Newman [2], first compound 0.0375 µg/mL, partner 0.39 µg/mL	0.679
S. aureus Newman [2], first compound 0.0375 µg/mL, partner 0.78 µg/mL	0.635
S. aureus Newman [2], first compound 0.0375 µg/mL, partner 1.56 µg/mL	0.651
S. aureus Newman [2], first compound 0.075 µg/mL, partner 0.39 µg/mL	0.577
S. aureus Newman [2], first compound 0.075 µg/mL, partner 0.78 µg/mL	0.522
S. aureus Newman [2], first compound 0.075 µg/mL, partner 1.56 µg/mL	0.422
S. aureus Newman [2], first compound 0.15 µg/mL, partner 0.39 µg/mL	0.0435
S. aureus Newman [2], first compound 0.15 µg/mL, partner 0.78 µg/mL	0.0274
S. aureus Newman [2], first compound 0.15 µg/mL, partner 1.56 µg/mL	0.0296
S. pneumoniae D39V [3], first compound 0.125 µg/mL, partner 1 µg/mL	0.944
S. pneumoniae D39V [3], first compound 0.125 µg/mL, partner 2 µg/mL	0.92
S. pneumoniae D39V [3], first compound 0.125 µg/mL, partner 4 µg/mL	0.492
S. pneumoniae D39V [3], first compound 0.25 µg/mL, partner 1 µg/mL	0.808
S. pneumoniae D39V [3], first compound 0.25 µg/mL, partner 2 µg/mL	0.846
S. pneumoniae D39V [3], first compound 0.25 µg/mL, partner 4 µg/mL	0.51
S. pneumoniae D39V [3], first compound 0.5 µg/mL, partner 4 µg/mL	0.347

Conditions	Bliss interaction score
B. subtilis 168 [4]	-0.118
S. aureus DSM 20231	-0.135
S. aureus Newman [5]	-0.132
S. pneumoniae D39V [6]	-0.0901

COc1ccc(C[C@H](N)C(=O)N[C@H]2[C@@H](O)[C@H](n3cnc4c(N(C)C)ncnc43)O[C@@H]2CO)cc1 [Puromycin] + CN(C)c1cc(NC(=O)CNC(C)(C)C)c(O)c2c1C[C@H]1C[C@H]3[C@H](N(C)C)C(O)=C(C(N)=O)C(=O)[C@@]3(O)C(O)=C1C2=O [Tigecycline]
fitness
Conditions	first compound 0.39 µg/mL	first compound 0.78 µg/mL	first compound 1 µg/mL	first compound 1.56 µg/mL	first compound 2 µg/mL	first compound 4 µg/mL
B. subtilis 168 [1], partner 0.039 µg/mL	0.945	0.976	–	0.953	–	–
B. subtilis 168 [1], partner 0.078 µg/mL	0.945	0.925	–	0.958	–	–
B. subtilis 168 [1], partner 0.156 µg/mL	0.895	0.964	–	0.924	–	–
S. aureus Newman [2], partner 0.039 µg/mL	≥ 1	0.999	–	0.985	–	–
S. aureus Newman [2], partner 0.078 µg/mL	≥ 1	0.995	–	0.995	–	–
S. aureus Newman [2], partner 0.156 µg/mL	≥ 1	0.991	–	≥ 1	–	–
S. pneumoniae D39V [3], partner 0.65 µg/mL	–	–	0.921	–	0.892	0.723
S. pneumoniae D39V [3], partner 1.3 µg/mL	–	–	0.927	–	0.931	0.71
S. pneumoniae D39V [3], partner 2.6 µg/mL	–	–	≥ 1	–	0.941	0.797

fitness, B. subtilis 168 [1], one replicate
Conditions	first compound 0.39 µg/mL	first compound 0.78 µg/mL	first compound 1.56 µg/mL
partner 0.125 µg/mL	≥ 1	0.997	≥ 1
partner 0.25 µg/mL	0.862	0.938	0.92
partner 0.5 µg/mL	0.908	0.893	0.903

Conditions	Bliss interaction score
B. subtilis 168 [4]	-0.044
S. aureus DSM 20231	0.0709
S. aureus Newman [5]	0.0585
S. pneumoniae D39V [6]	0.062

COc1ccc(C[C@H](N)C(=O)N[C@H]2[C@@H](O)[C@H](n3cnc4c(N(C)C)ncnc43)O[C@@H]2CO)cc1 [Puromycin] + CN[C@@H]1[C@H](O[C@H]2[C@H](O[C@H]3[C@H](O)[C@@H](O)[C@H](N=C(N)N)[C@@H](O)[C@@H]3N=C(N)N)O[C@@H](C)[C@]2(O)C=O)O[C@@H](CO)[C@H](O)[C@H]1O [Streptomycin]
fitness
Conditions	first compound 0.39 µg/mL	first compound 0.78 µg/mL	first compound 1 µg/mL	first compound 1.56 µg/mL	first compound 2 µg/mL	first compound 4 µg/mL
B. subtilis 168 [1], partner 2 µg/mL	0.908	0.878	–	0.796	–	–
B. subtilis 168 [1], partner 4 µg/mL	0.27	0.143	–	0.106	–	–
B. subtilis 168 [1], partner 8 µg/mL	0.0282	0.0233	–	0.0357	–	–
S. aureus Newman [2], partner 1 µg/mL	≥ 1	0.968	–	0.991	–	–
S. aureus Newman [2], partner 2 µg/mL	≥ 1	0.964	–	0.939	–	–
S. pneumoniae D39V [3], partner 2 µg/mL	–	–	0.933	–	0.914	0.739
S. pneumoniae D39V [3], partner 4 µg/mL	–	–	0.956	–	0.906	0.746
S. pneumoniae D39V [3], partner 8 µg/mL	–	–	0.876	–	0.784	0.567

S. pneumoniae D39V [3], partner 16 µg/mL, one replicate
Conditions	fitness
first compound 1 µg/mL	0.748
first compound 2 µg/mL	0.643
first compound 4 µg/mL	0.254

Conditions	Bliss interaction score
B. subtilis 168 [4]	-0.226
S. aureus DSM 20231	-0.193
S. aureus Newman [5]	0.0431
S. pneumoniae D39V [6]	-0.0971
